The text below walks through data of PMC10721899, “The bactericidal and antibiofilm effects of a lysine-substituted hybrid peptide, CM-10K14K, on biofilm-forming Staphylococcus epidermidis” (Scientific Reports, 2023).

Where a name gives a salt, the structure may show the parent alone. Ends that are not written are not given here.

Data set [1] relates to human red blood cells (hRBCs). Put plainly: Hemolytic activity. Format: cell-based. To be noted: 1 h at 37 °C, relative to Triton-X control. How it is done: The quantity of hemoglobin released by treatment was used as a measure of a peptide’s hemolytic activity against human red blood cells (hRBCs)[23]. Venous blood was collected from a healthy volunteer in plastic blood collection tubes with lithium heparin (BD Vacutainer™, USA) and centrifuged at 2000×g for 5 min to separate the plasma and buffy coat. The hRBCs obtained were washed at least three times and diluted to 4% (vol/vol) in phosphate-buffered saline (PBS; Caisson Laboratories, USA). The same volume of the hRBC suspension (50 µL) was incubated with twofold, serially diluted concentrations (0.98–250 μg/mL) of peptide dissolved in PBS for 1 h at 37 °C. The hRBCs incubated in 0.1% Triton X-100 and PBS were used as positive (100% hemolysis) and negative (0% hemolysis) controls, respectively. The release of hemoglobin into the supernatants was monitored by measurement of absorbance at 405 nm using a Multiskan SkyHigh microplate reader (Thermo Scientific™, Singapore). The percentage of hemolysis was calculated as previously described.

Data set [2] deals with S. epidermidis ATCC 35984 (biofilm-producer). Briefly: microbe, parasite or virus in culture. To be noted: for MIC, minimum inhibitory concentration: MHB; for MBC, minimum bactericidal concentration: colony count from non-turbid MIC wells. Format: cell-based, Staphylococcus epidermidis. Here is the method: (§1) The S. epidermidis ATCC 35984 (biofilm-producer), Staphylococcus aureus ATCC 25923, Enterococcus faecalis ATCC 29219, Acinetobacter baumannii ATCC 19606, Klebsiella pneumoniae ATCC 27736 and Pseudomonas aeruginosa ATCC 27853 were grown overnight on trypticase soy agar (TSA; BD Bacto™), then subcultured in TSB and incubated at 37 °C for 16–18 h before each experiment. Stock bacterial cultures were kept frozen at − 80 °C in trypticase soy broth (TSB; BD Bacto™, USA) containing 20% glycerol.
(§2) The antimicrobial activity of peptides against S. epidermidis and five strains of both gram-positive and gram-negative bacteria frequently involved in catheter-related infections including S. aureus, E. faecalis, A. baumannii, K. pneumoniae, and P. aeruginosa was compared to that of vancomycin (Vancomycin hydrochloride, BioChemica, UK) using a modified version of the National Committee for Clinical Laboratory Standards (NCCLS) broth microdilution method. Two-fold serially diluted (0.98–250 µg/mL) aliquots of the peptides were prepared in type 1 water and added to sterile 96-well polypropylene microplates (Nunclon Delta-Treated; Thermo Scientific™, Denmark) in a volume of 50 µL, followed by the addition of 50 µL of bacterial suspensions (2–7 × 10^5 CFU/mL) in Mueller Hinton Broth (MHB; BD Difco™, USA). Uninoculated MHB and bacterial cultures without peptides were used as negative and positive controls, respectively. After culturing in an incubator shaker for 24 h at 37 °C, the lowest concentration at which the peptide inhibited bacterial growth as observed by visual inspection was taken as the minimal inhibitory concentration (MIC)[22]. Fifty microliter aliquots from each non-turbid well identified in the MIC experiment were plated on TSA for determination of minimal bactericidal concentration (MBC) by colony count assay. […] All experiments were performed in triplicate.

Data set [3] has as its system S. epidermidis ATCC 35984. Briefly: Biostability: growth inhibition in the presence of proteinase K. Format: cell-based, Staphylococcus epidermidis. To be noted: 0.01 mg/mL proteinase K. Here is the method:
Proteolysis of peptide by proteinase K was determined using the growth inhibition assay described by Jia et al.[28] with some modifications. […] After 6 and 24 h of incubation, the growth inhibitory effect was determined by measuring the absorbance at 620 nm using a Multiskan SkyHigh microplate reader. The percentage of relative survival rate was calculated as follows: Relativesurvivalrate%=AbsTreated/AbsUntreated×100 where AbsTreated was absorbance value of S. epidermidis cells after incubation with peptide in the presence of proteinase K, AbsUntreated was that of S. epidermidis cells incubated with ultrapure water in the presence of proteinase K.

Data set [4] concerns Acinetobacter baumannii ATCC 19606. In kind it is cell-based. How it is done: as §1, §2
Data set [5] relates to Pseudomonas aeruginosa ATCC 27853. In kind it is cell-based. How it is done:
as §1, §2

Data set [6] deals with Staphylococcus aureus ATCC 25923. In kind it is cell-based. Here is the method: as §1, §2
Data set [7] has as its system Klebsiella pneumoniae ATCC 27736. In kind it is cell-based. Here is the method: as §1, §2
Data set [8] relates to Enterococcus faecalis ATCC 29219. Format: cell-based. How it is done:
as §1, §2

The test system of data set [9] is L929 mouse fibroblast cells. Briefly: Cytotoxicity, MTT assay. Format: cell-based. To be noted: MTT, 24 h. How it is done:
(§3) The cytotoxicity of the candidate peptide on L929 mouse fibroblast cell lines (NCTC clone 929) were evaluated using the 3-(4,5-dimethylthiazol-2-yl)-2,5-diphenyltetrazolium bromide (MTT) assay following the published protocol. L929 cells (3–5 × 10^4) in RPMI 1640 medium, supplemented with 10% (vol/vol) heat-inactivated fetal bovine serum, 2 mM L-glutamine, 0.2% (wt/vol) sodium bicarbonate, 100 U/mL penicillin and […] streptomycin were placed into each well of 96-well plates and incubated in 5% CO2 at 37 °C overnight. After removal of media, the two-fold serially diluted peptide was added to achieve final concentrations of 0.98–250 µg/mL. Plates were then incubated at 37 °C under 5% CO2 for 24 h. The RPMI 1640 medium with and without L929 seeded cells were used as positive and negative controls, respectively. After treatment, MTT (Sigma-Aldrich, USA) was added to a final concentration of 0.5 mg/mL and suspensions incubated for 4 h at 37 °C under 5% CO2. Supernatants from each well were then discarded, and 150 µl of dimethyl sulfoxide (DMSO; Fisher BioReagents™, UK) was added and gently mixed to dissolve the crystallized formazan. Absorbance was measured at 570 nm using a Multiskan SkyHigh microplate reader. Cell viability (%) was estimated according to the following formula: Cellviability%=AbsTreated-AbsBlank/AbsUntreated-AbsBlank×100

A short description of data set [10]: Cytotoxicity, MTT assay. Format: cell-based, mouse. To be noted: mouse, L929 mouse fibroblast cells (NCTC clone 929), L929, 24 h, read-out: cell viability. How it is done:
as §3
For orientation: Formazan colour is commonly taken as a measure of viable cells.

Data set [11] has as its system S. epidermidis ATCC 35984. Briefly: Biofilm inhibition assay, crystal violet staining. In kind it is cell-based, Staphylococcus epidermidis. How it is done: The biofilm biomass was assessed using crystal violet staining to determine the ability of peptides to inhibit bacterial formation of biofilm ^1. Overnight S. epidermidis cultures were adjusted to an OD620 of 0.1 in TSB. An equal volume (50 µL) of bacterial suspension (~10^8 CFU/mL) was incubated with 2-fold serially diluted peptides (0.98-250 μg/mL) at 37°C for 24 h in 96-well plates. Supernatants were discarded after incubation, and wells were gently rinsed at least twice with 0.85% NaCl to remove planktonic cells. Adherent biofilms were fixed for 30 minutes with 95% ethanol, then the fixative solution was removed. The fixed biofilms were dried thoroughly and stained with addition of 150 µL of 0.1% crystal violet (CV) to each well containing biofilm, along with its respective control media. After 15 min, CV solutions were removed and wells were gently rinsed three times with 400 μL of 0.85% NaCl without disturbing the biofilm. The plates were left to dry for 30 min before adding 200 μL of 95% ethanol to each well to solubilize the bound CV with vigorous pipetting. The biofilm mass was evaluated by observing OD at 570 nm using a Multiskan SkyHigh microplate reader ^2. Results were expressed as the percentage of biofilm mass compared to that of control.

For “KWKLFKKIGKVLKVL-NH2 [CM-10K, KWKLFKKIGKVLKVL-NH2]”, the “HC50, concentration of peptide that causes 50% hemolysis” value in data set [1] is on record as 85.78 ± 9.01 µg/mL. Further, the “MIC, minimum inhibitory concentration” value in data set [2] (24 h at 37 °C) turned out to be 3.91 µg/mL. Moreover, in [2], the “MBC, minimum bactericidal concentration” value is on record as 7.81 µg/mL.
In the same order, the values of “VWKLFKKIGKVLKKL-NH2 [CM-1V10K14K, VWKLFKKIGKVLKKL-NH2]” are 118.90 ± 8.19 µg/mL, 3.91 µg/mL and 15.63 µg/mL.
For the molecule “VWKLFKKIGAVLKKL-NH2 [CM-1V14K, VWKLFKKIGAVLKKL-NH2]”, the “HC50, concentration of peptide that causes 50% hemolysis” value in [1] came out at 131.70 ± 9.23 µg/mL. Moreover, in data set [2] (24 h at 37 °C), the “MIC, minimum inhibitory concentration” value came to 7.81 µg/mL. The “MBC, minimum bactericidal concentration” value in [2] was 15.63 µg/mL.
Take “H-KWKLFKKIGAVLKVL-NH2 [C(1–7)M(2–9), KWKLFKKIGAVLKVL-NH2, reference compound]”: in data set [3] (24-h incubation, CM-10K14K at 31.25 and 62.5 µg/mL), the “antibacterial activity in the presence of proteinase K” value is on record as “lost its ability to kill bacteria”. For the same molecule, the “concentration inhibiting bacterial growth in the presence of proteinase K” value in data set [3] (6 h of incubation) is listed as “at least its MIC”. In addition, in data set [1], the “HC50, concentration of peptide that causes 50% hemolysis” value is reported as 88.89 ± 4.62 µg/mL. Further, the MIC, minimum inhibitory concentration in data set [2] (24 h at 37 °C) is 7.81 µg/mL. Also, the MBC, minimum bactericidal concentration in [2] came out at 7.81 µg/mL.
With “KWKLFKKIGKVLKKL-NH2 [CM-10K14K, KWKLFKKIGKVLKKL-NH2]”, the MBC in data set [4] was found to be 15.63 µg/mL; in [5] it was 62.5 µg/mL; in data set [6] it was 7.81 µg/mL; in [7], 31.25 µg/mL; in data set [8] it was 31.25 µg/mL. The MIC in data set [4] was 7.81 µg/mL; in data set [5], 15.63 µg/mL; in data set [6], 7.81 µg/mL; in [7], 15.63 µg/mL; in [8] it was 31.25 µg/mL. For the same molecule, in data set [9], the “IC50 on L929 cells” value amounted to 56.53 ± 1.84 µg/mL. For the same molecule, the viability at 24 h in [10] (at the MBC) was 92.9 ± 1.82%. The viability at 24 h, 3.91 μg/mL in data set [10] (at the MIC) turned out to be 100%. In addition, in [1], the “HC50, concentration of peptide that causes 50% hemolysis” value came to 561.90 ± 88.19 µg/mL. For the same molecule, the “MIC, minimum inhibitory concentration” value in data set [2] (24 h at 37 °C) was determined as 3.91 µg/mL. Also, the “MBC, minimum bactericidal concentration” value in [2] is given as 7.81 µg/mL.
With `CN[C@H](CC(C)C)C(=O)N[C@H]1C(=O)N[C@@H](CC(N)=O)C(=O)N[C@H]2C(=O)N[C@H]3C(=O)N[C@H](C(=O)N[C@H](C(=O)O)c4cc(O)cc(O)c4-c4cc3ccc4O)[C@H](O)c3ccc(c(Cl)c3)Oc3cc2cc(c3O[C@@H]2O[C@H](CO)[C@@H](O)[C@H](O)[C@H]2O[C@H]2C[C@](C)(N)[C@H](O)[C@H](C)O2)Oc2ccc(cc2Cl)[C@H]1O` [Vancomycin, Vancomycin hydrochloride, reference compound], in data set [11] (at its MIC and MBC, 24 h), the “effect on biofilm formation” value was “slightly induced biofilm formation”. The “reduction of the biomass of biofilms” value in data set [11] (treatment with > 15.63 µg/mL for 24 h) was “more than 90%”. Moreover, the MIC in [2] (Staphylococcus epidermidis, ATCC35984, MHB, 24 h at 37 °C, read-out: MIC, minimum inhibitory concentration) was determined as 3.91 µg/mL. The MBC in data set [2] (Staphylococcus epidermidis, ATCC35984, colony count from non-turbid MIC wells, read-out: MBC, minimum bactericidal concentration) stood at 7.81 µg/mL.
With “KWKLFKKIGAVLKVLA-NH2 [CM-A, KWKLFKKIGAVLKVLA-NH2]”, the “HC50, concentration of peptide that causes 50% hemolysis” value in data set [1] turned out to be 42.58 ± 1.98 µg/mL. Further, the “MIC, minimum inhibitory concentration” value in data set [2] (24 h at 37 °C) was 7.81 µg/mL. In data set [2], the “MBC, minimum bactericidal concentration” value is on record as 15.63 µg/mL.

By viability is commonly meant a per cent measure of how many cells are alive, often set against a control.
